Measurements published in patent US20220194936A1, “CRYSTALLINE FORMS OF N-(5-(5-((1R,2S)-2-FLUOROCYCLOPROPYL)-1,2,4-OXADIAZOL-3-YL)-2-METHYLPHENYL)IMIDAZO[1,2-A]PYRIDINE-3-CARBOXAMIDE” (Novartis AG, priority 2019, published 2022).
In brackets after ≈: the same amount, converted by molar mass. Where two headings read alike, the source gives them in different places.

Key:
Assay type in all cases: physicochemical
[1] = Evaluation of humidity at elevated temperature (solid state, open vial, 75% RH, 1 week; HPLC, XRPD, color)
Protocol: (5-(5-((1R,2S)-2-fluorocyclopropyl)-1,2,4-oxadiazol-3-yl)-2-methylphenyl)imidazo[1,2-a]pyridine-3-carboxamide Form A (10 mg) was placed in an open vial in a 75% relative humidity (RH) chamber at 50° C. for one week and also in an open vial in a 75% relative humidity (RH) chamber at 80° C. for one week. The initial purity of (5-(5-((1R,2S)-2-fluorocyclopropyl)-1,2,4-oxadiazol-3-yl)-2-methylphenyl)imidazo[1,2-a]pyridine-3-carboxamide Form A was 99.7%.
The samples were examined by XRPD for physical stability determination and by HPLC for chemical stability determination indicated by the presence of degradation products (DP).
The HPLC method used is […]
The color (CL) of the samples was evaluated by visual observation.
(5-(5-((1R,2S)-2-fluorocyclopropyl)-1,2,4-oxadiazol-3-yl)-2-methylphenyl)imidazo[1,2-a]pyridine-3-carboxamide fumaric acid co-crystal (10 mg) was placed in an open vial in a 75% relative humidity (RH) chamber at 50° C. for one week and also in an open vial in a 75% relative humidity (RH) chamber at 80° C. for one week. The initial purity of (5-(5-((1R,2S)-2-fluorocyclopropyl)-1,2,4-oxadiazol-3-yl)-2-methylphenyl)imidazo[1,2-a]pyridine-3-carboxamide fumaric acid co-crystal was 99.7%.
The samples were examined by XRPD for physical stability determination and by HPLC for chemical stability determination indicated by the presence of degradation products (DP). The HPLC method used is […]

[2] = Evaluation of the effect of grinding and granulation; conditions: Grinding and granulation with added water or ethanol
Protocol: 5-(5-((1R,2S)-2-fluorocyclopropyl)-1,2,4-oxadiazol-3-yl)-2-methylphenyl)imidazo[1,2-a]pyridine-3-carboxamide Form A (10 mg) was placed in a container and ground with added water or ethanol.
5-(5-((1R,2S)-2-fluorocyclopropyl)-1,2,4-oxadiazol-3-yl)-2-methylphenyl)imidazo[1,2-a]pyridine-3-carboxamide fumaric acid co-crystal (10 mg) was placed in a container and ground with added water or ethanol.

[3] = Hygroscopicity by DVS at 25° C.
Protocol: The hygroscopicity of 5-(5-((1R,2S)-2-fluorocyclopropyl)-1,2,4-oxadiazol-3-yl)-2-methylphenyl)imidazo[1,2-a]pyridine-3-carboxamide Form A was evaluated by DVS at 25° C. and various RH values. The samples was examined by XRPD for physical stability determination.
The hygroscopicity of 5-(5-((1R,2S)-2-fluorocyclopropyl)-1,2,4-oxadiazol-3-yl)-2-methylphenyl)imidazo[1,2-a]pyridine-3-carboxamide fumaric acid co-crystal was evaluated by DVS at 25° C. and various RH values. The samples was examined by XRPD for physical stability determination.

[4] = Solubility in various media at 25° C. after 24 hours equilibration (HPLC); conditions: for solubility at 24 h: thermodynamic from solid, read-out: Conc. (solubility)
Protocol: (§1) 5-(5-((I R,2S)-2-fluorocyclopropyl)-1,2,4-oxadiazol-3-yl)-2-methylphenyl)imidazo[1,2-a]pyridine-3-carboxamide Form A (10 mg) in various media (1 mL) were mixed in a glass vial to make a slurry. Each sample was equilibrated at 25° C. for 24 hrs, and centrifuged at 13400 r.p.m. for 3 mins with 0.2 μm membrane to separate solids from liquids. The liquid was used to measure solubility by HPLC. Table 6 provides solubility data of 5-(5-((1R,2S)-2-fluorocyclopropyl)-1,2,4-oxadiazol-3-yl)-2-methylphenyl)imidazo[1,2-a]pyridine-3-carboxamide Form A at 25° C. after 24 hours equilibration and the final pH of the sample.
as §1, with “5-(5-((1R,2S)-2-fluorocyclopropyl)-1,2,4-oxadiazol-3-yl)-2-methylphenyl)imidazo[1,2-a]pyridine-3-carboxamide fumaric acid co-crystal” for “5-(5-((I R,2S)-2-fluorocyclopropyl)-1,2,4-oxadiazol-3-yl)-2-methylphenyl)imidazo[1,2-a]pyridine-3-carboxamide Form A”, “10” for “6”, “fumaric acid co-crystal” for “Form A”

[5] = Water activity evaluation - crystal modification (water/ethanol, 2 weeks, XRPD)
Protocol: 5-(5-((1R,2S)-2-fluorocyclopropyl)-1,2,4-oxadiazol-3-yl)-2-methylphenyl)imidazo[1,2-a]pyrindine-3-carboxamide Form A (10 mg) was placed in a vials containing various ratios of water and ethanol and allowed to equilibrate for 2 weeks. The samples were then examined by XRPD for physical stability determination. The results are given below in Table 5 which show conversion to Form HA and Form HB occurs depending on the water activity. […]

**Q.** Which results are given for `Cc1ccc(-c2noc([C@H]3C[C@@H]3F)n2)cc1NC(=O)c1cnc2ccccn12` [Form A, N-(5-(5-((1R,2S)-2-fluorocyclopropyl)-1,2,4-oxadiazol-3-yl)-2-methylphenyl)imidazo[1,2-a]pyridine-3-carboxamide]?
**A.** CL (color) ([1]; 50° C.): No change; DP (%) degradation products, Bulk (HPLC) ([1]; 50° C.): 0.06%; Bulk (XRPD) ([1]; 50° C. and 80° C.): Bulk (XRPD): No change; CL (color) ([1]; 80° C.): No change; DP (%) degradation products, Bulk (HPLC) ([1]; 80° C.): 0.06%; Change in solid state [2]: no change in solid state; Desorporption. Weight % change ([3]; 0 % RH): 0.0000%; Sorption Weight % change ([3]; 0 % RH): 0.0000%; Desorporption. Weight % change ([3]; 10 % RH): 0.0167%; Sorption Weight % change ([3]; 10 % RH): 0.0167%; Desorporption. Weight % change ([3]; 20 % RH): 0.0501%; Sorption Weight % change ([3]; 20 % RH): 0.0234%; Desorporption. Weight % change ([3]; 30 % RH): 0.0768%; Sorption Weight % change ([3]; 30 % RH): 0.0468%; Desorporption. Weight % change ([3]; 40 % RH): 0.0802%; Sorption Weight % change ([3]; 40 % RH): 0.0601%; Desorporption. Weight % change ([3]; 50 % RH): 0.0735%; Sorption Weight % change ([3]; 50 % RH): 0.0568%; Desorporption. Weight % change ([3]; 60 % RH): 0.0969%; Sorption Weight % change ([3]; 60 % RH): 0.0868%; Desorporption. Weight % change ([3]; 70 % RH): 0.1369%; Sorption Weight % change ([3]; 70 % RH): 0.1169%; Desorporption. Weight % change ([3]; 80 % RH): 0.1803%; Sorption Weight % change ([3]; 80 % RH): 0.1436%; Desorporption. Weight % change ([3]; 90 % RH): 0.2338%; Sorption Weight % change ([3]; 90 % RH): 0.2104%; solubility at 24 h ([4]; 0.01N HCl, 25 °C, pH 2, simulated gastric fluid, pH 2.0 (0.01N HCl), 25° C.): 210 µg/mL (≈ 556 µM); solubility at 24 h ([4]; 0.1N HCl, 25 °C, pH 1, simulated gastric fluid, pH 1.0 (0.1N HCl), 25° C.): 440 µg/mL (≈ 1170 µM); Final pH ([4]; FaSSIF-V2, pH 6.5, 25° C.): 6.40; Conc. (solubility) ([4]; FaSSIF-V2, pH 6.5, 25° C., LOQ = Limit of Quantitation +/− 0.5 μg/ml): LOQ; solubility at 24 h ([4]; FeSSIF-V2, 25 °C, pH 5.8, fessif, FeSSIF-V2, pH 5.8, 25° C.): 15 µg/mL (≈ 39.7 µM); Final pH ([4]; FeSSIF-V2, pH 5.8, 25° C.): 5.63; Conc. (solubility) ([4]; SGF pH 2.0, 25° C.): 640 µg/mL; Final pH ([4]; SGF pH 2.0, 25° C.): 2.10; Final pH ([4]; Water, 25° C.): 7.91; Conc. (solubility) ([4]; Water, 25° C., LOQ = Limit of Quantitation +/− 0.5 μg/ml): LOQ; Final pH ([4]; pH 1.0 (0.1N HCl), 25° C.): 1.20; Final pH ([4]; pH 2.0 (0.01N HCl), 25° C.): 2.06; Final pH ([4]; pH 4.7, acetate buffer, 25° C.): 4.78; Conc. (solubility) ([4]; pH 4.7, acetate buffer, 25° C., LOQ = Limit of Quantitation +/− 0.5 μg/ml): LOQ; Final pH ([4]; pH 6.8, phosphate buffer, 25° C.): 6.77; Conc. (solubility) ([4]; pH 6.8, phosphate buffer, 25° C., LOQ = Limit of Quantitation +/− 0.5 μg/ml): LOQ; Final pH ([4]; pH 10.0, borate buffer, 25° C.): 10.02; Conc. (solubility) ([4]; pH 10.0, borate buffer, 25° C., LOQ = Limit of Quantitation +/− 0.5 μg/ml): LOQ; Modification (XRPD) ([5]; Water activity 0.000, Water/ethanol (v/v) 0.000/1.000, 2 weeks): No change; Modification (XRPD) ([5]; Water activity 0.099, Water/ethanol (v/v) 0.013/0.987, 2 weeks): No change
